ChEMBL document CHEMBL4270488, “Antibacterial Compounds from Marine Bacteria, 2010-2015” (J Nat Prod, 2017)
In brackets after ≈: the same amount, converted by molar mass. Where a SMILES comes first, the peptide text is derived from it. [ ]: non-standard residue; d: D form. The star is where a group is joined. Tridecanoyl(3R-OH,11-Me) = CCC(C)CCCCCCC[C@@H](O)CC(=O)*; X2 = CCC(C)CC(C)CCCCC[C@@H](O)CC(=O)*

What was measured:
Staphylococcus aureus [1] = test: Antibacterial activity against Staphylococcus aureus incubated for 18 hrs; assay type: functional
Staphylococcus aureus [2] = test: Antibacterial activity against Staphylococcus aureus ATCC 29213; assay type: functional
Bacillus subtilis [3] = test: Antibacterial activity against Bacillus subtilis SCSIO BS01; assay type: functional
Bacillus thuringiensis = test: Antibacterial activity against Bacillus thuringiensis SCSIO BT01; assay type: functional
Staphylococcus aureus [4] = test: Antibacterial activity against methicillin-resistant Staphylococcus aureus; assay type: functional
Bacillus subtilis [5] = test: Antibacterial activity against Bacillus subtilis by broth dilution assay; assay type: functional
Pseudomonas aeruginosa = test: Antibacterial activity against Pseudomonas aeruginosa by broth dilution assay; assay type: functional
Salmonella typhi = test: Antibacterial activity against Salmonella typhi by broth dilution assay; assay type: functional, Salmonella enterica subsp. enterica serovar Typhi; details: Salmonella enterica
Staphylococcus aureus [6] = test: Antibacterial activity against Staphylococcus aureus by broth dilution assay; assay type: functional
Escherichia coli [7] = test: Antibacterial activity against Escherichia coli by broth dilution assay; assay type: functional
Micrococcus luteus = test: Antibacterial activity against Micrococcus luteus by serial dilution assay; assay type: functional
Proteus vulgaris = test: Antibacterial activity against Proteus vulgaris by serial dilution assay; assay type: functional
Bacillus subtilis [8] = test: Antibacterial activity against Bacillus subtilis by serial dilution assay; assay type: functional
Escherichia coli [9] = test: Antibacterial activity against Escherichia coli by serial dilution assay; assay type: functional
Enterococcus faecalis = test: Antibacterial activity against Enterococcus faecalis ATCC 29212; assay type: functional

C[C@@H]1O[C@](C)(C(=O)O)O[C@H]1/C=C/C=C/C=C/C(=O)O[C@H]1CC[C@H](c2ccc3c(c2O)C(=O)c2ccc4c(c2C3=O)C(=O)[C@H](O)[C@](C)(O)C4)O[C@@H]1C
MIC (Staphylococcus aureus [1]): 2 to 6 µg/mL (≈ 2.85 to 8.54 µM)

C=C1CC[C@H](Cl)C(C)(C)[C@@H]1C[C@@]12OC(C)(C)[C@H](Cl)C[C@]1(Cl)C(=O)c1c(O)cc(O)cc1C2=O
MIC (Staphylococcus aureus [2]): ≤ 2 µg/mL
MIC (Bacillus subtilis [3]): ≤ 2 µg/mL
MIC (Bacillus thuringiensis): ≤ 2 µg/mL

CC[C@H]1[C@@H]2C=C[C@@H]3[C@H]4/C=C/CC(=O)NCCC[C@H]5C(O)=C(C(=O)/C=C/[C@@H]4C[C@@H]3[C@H]2C[C@H]1C)C(=O)N5C
MIC (Staphylococcus aureus [4]): 1 to 4 µg/mL (≈ 2.03 to 8.12 µM)

CCC(C)CCCCCCC[C@@H](O)CC(=O)N[C@@H](CCC(=O)OC)C(=O)N[C@@H](CC(C)C)C(=O)N[C@@H](CC(C)C)C(=O)N[C@@H](CC(C)C)C(=O)O (stereo partly drawn) ({Tridecanoyl(3R-OH,11-Me)}-E(OMe)LLL-OH)
MIC (Bacillus subtilis [5]): 0.01 µg/mL (≈ 0.0138 µM)
MIC (Pseudomonas aeruginosa): 0.03 µg/mL (≈ 0.0413 µM)
MIC (Salmonella typhi): 0.01 µg/mL (≈ 0.0138 µM)
MIC (Staphylococcus aureus [6]): 0.03 µg/mL (≈ 0.0413 µM)

CC(C)=CCc1cc(C(=O)Nc2c(O)c3ccc(O[C@@H]4OC(C)(C)[C@H](O)[C@@H](O)[C@H]4O)c(C)c3oc2=O)ccc1O
MIC (Staphylococcus aureus [4]): > 64 µg/mL

C[C@@H](O)CCC/C=C/C=C/[C@H](O)C[C@@H](O)C/C=C\C=C\C(=O)O
MIC (Escherichia coli [7]): ≥ 16 µg/mL
MIC (Bacillus subtilis [5]): ≥ 16 µg/mL

COC(=O)[C@@]1(C)O[C@@H](C)[C@H](/C=C/C=C/C=C/C(=O)O[C@H]2CC[C@H](c3ccc4c(c3O)C(=O)C3=C(C4=O)[C@@]4(O)C(=O)[C@H](O)[C@](C)(O)C[C@@]4(O)C=C3)O[C@@H]2C)O1
MIC (Staphylococcus aureus [1]): 2 to 6 µg/mL (≈ 2.66 to 7.99 µM)

CCC(C)CCCCCCC[C@@H](O)CC(=O)N[C@@H](CCC(=O)O)C(=O)N[C@@H](CC(C)C)C(=O)N[C@@H](CC(C)C)C(=O)N[C@@H](C(=O)N[C@@H](CC(=O)O)C(=O)N[C@@H](CC(C)C)C(=O)N[C@@H](CC(C)C)C(=O)O)C(C)C (stereo partly drawn) ({Tridecanoyl(3R-OH,11-Me)}-ELL[dV]DLL-OH)
MIC (Bacillus subtilis [5]): 16 µg/mL (≈ 15.4 µM)
MIC (Pseudomonas aeruginosa): 16 µg/mL (≈ 15.4 µM)
MIC (Salmonella typhi): 16 µg/mL (≈ 15.4 µM)
MIC (Staphylococcus aureus [6]): 16 µg/mL (≈ 15.4 µM)

CCC(C)CC(C)CCCCC[C@@H](O)CC(=O)N[C@@H](CCC(=O)O)C(=O)N[C@@H](CC(C)C)C(=O)N[C@@H](CC(C)C)C(=O)N[C@@H](C(=O)N[C@@H](CC(=O)O)C(=O)N[C@@H](CC(C)C)C(=O)N[C@@H](CC(C)C)C(=O)O)C(C)C (stereo not given in full) (X2-ELL[dV]DLL-OH)
MIC (Bacillus subtilis [5]): 32 µg/mL (≈ 30.3 µM)
MIC (Pseudomonas aeruginosa): 16 µg/mL (≈ 15.2 µM)
MIC (Salmonella typhi): 32 µg/mL (≈ 30.3 µM)
MIC (Staphylococcus aureus [6]): 16 µg/mL (≈ 15.2 µM)

COC(=O)N[C@H]1[C@@H](C)O[C@@H](O[C@H]2C/C=C(\C)[C@@H]3C=C[C@@H]4[C@@H](O[C@H]5C[C@@H](O[C@H]6C[C@@H](O)[C@@H](O)[C@H](C)O6)[C@@H](O)[C@H](C)O5)[C@@H](C)C[C@H](C)[C@H]4[C@]3(C)C(=O)C3=C(O)[C@@]4(C[C@@H](C)C(C)=C[C@H]4/C=C/2C)OC3=O)C[C@]1(C)[N+](=O)[O-]
MIC (Staphylococcus aureus [2]): 6.2 to 50 µg/mL (≈ 6.04 to 48.7 µM)

CC(=O)O[C@H]1[C@@H](O)[C@H](Oc2ccc3c(O)c(NC(=O)c4cc(O)c(O)c(CC=C(C)C)c4)c(=O)oc3c2C)OC(C)(C)[C@@H]1O
MIC (Staphylococcus aureus [4]): > 64 µg/mL

C=C1CC[C@H](Br)C(C)(C)[C@@H]1C[C@@]12OC(C)(C)[C@H](Cl)C[C@]1(Cl)C(=O)c1c(O)cc(O)cc1C2=O
MIC (Staphylococcus aureus [2]): ≤ 0.5 µg/mL
MIC (Bacillus subtilis [3]): ≤ 0.5 µg/mL
MIC (Bacillus thuringiensis): ≤ 0.5 µg/mL

O=C1NC(=O)C(c2ccc(O)c([N+](=O)[O-])c2)=C1c1ccc(O)cc1
MIC (Micrococcus luteus): 25 to 100 µg/mL (≈ 76.6 to 307 µM)
MIC (Proteus vulgaris): 25 to 100 µg/mL (≈ 76.6 to 307 µM)
MIC (Bacillus subtilis [8]): 25 to 100 µg/mL (≈ 76.6 to 307 µM)
MIC (Escherichia coli [9]): 25 to 100 µg/mL (≈ 76.6 to 307 µM)

C[C@@H]1CCC/C=C/C=C/[C@H](O)C[C@@H](O)[C@H](O)/C=C\C=C\[C@H](O)C/C=C/C=C\C(=O)O1
MIC (Escherichia coli [7]): 0.1 µg/mL (≈ 0.239 µM)
MIC (Bacillus subtilis [5]): 0.1 µg/mL (≈ 0.239 µM)
MIC (Staphylococcus aureus [6]): 0.1 µg/mL (≈ 0.239 µM)

CC[C@H]1[C@@H]2C=C[C@@H]3[C@H]4C/C=C\C(=O)NCCC[C@@H]5NC(=O)C(=C5O)C(=O)/C=C/[C@@H]4C[C@@H]3[C@H]2C[C@H]1C
MIC (Staphylococcus aureus [4]): 1 to 4 µg/mL (≈ 2.09 to 8.36 µM)

C[C@@H]1CCC[C@@H](O)/C=C/[C@@H]2O[C@@H]2C[C@@H](O)C/C=C\C=C\[C@@H](O)C/C=C/C=C\C(=O)O1
MIC (Escherichia coli [7]): 16 µg/mL (≈ 38.2 µM)
MIC (Bacillus subtilis [5]): 16 µg/mL (≈ 38.2 µM)

O=C1NC(=O)C(c2c[nH]c3ccccc23)=C1c1ccc(O)c([N+](=O)[O-])c1
MIC (Micrococcus luteus): 3 to 25 µg/mL (≈ 8.59 to 71.6 µM)
MIC (Proteus vulgaris): 3 to 25 µg/mL (≈ 8.59 to 71.6 µM)
MIC (Bacillus subtilis [8]): 3 to 25 µg/mL (≈ 8.59 to 71.6 µM)
MIC (Escherichia coli [9]): 3 to 25 µg/mL (≈ 8.59 to 71.6 µM)

Cc1cc(=O)n(C)c2c1C(=O)c1c(C)cc(=O)n3c1[C@@]2(O)C[C@]3(C)O
MIC (Staphylococcus aureus [2]): 1 to 4 µg/mL (≈ 2.92 to 11.7 µM)
MIC (Enterococcus faecalis): 1 to 4 µg/mL (≈ 2.92 to 11.7 µM)
MIC (Bacillus thuringiensis): 1 to 4 µg/mL (≈ 2.92 to 11.7 µM)

CC1(C)OC2=C(C[C@H]1Cl)C(=O)c1c(O)cc(O)cc1C2=O
MIC (Staphylococcus aureus [2]): 4 to 32 µg/mL (≈ 13 to 104 µM)
MIC (Bacillus subtilis [3]): 4 to 32 µg/mL (≈ 13 to 104 µM)
MIC (Bacillus thuringiensis): 4 to 32 µg/mL (≈ 13 to 104 µM)

COC(=O)C[C@H](O)C[C@@H](O)C[C@H](O)/C=C/C=C/CCC[C@@H](C)O
MIC (Escherichia coli [7]): ≥ 16 µg/mL
MIC (Bacillus subtilis [5]): ≥ 16 µg/mL

C/C(C=O)=C/CC/C(C)=C/C[C@@]12OC(C)(C)[C@H](Cl)C[C@]1(Cl)C(=O)c1c(O)cc(O)cc1C2=O
MIC (Staphylococcus aureus [2]): 4 to 32 µg/mL (≈ 8.07 to 64.6 µM)
MIC (Bacillus subtilis [3]): 4 to 32 µg/mL (≈ 8.07 to 64.6 µM)
MIC (Bacillus thuringiensis): 4 to 32 µg/mL (≈ 8.07 to 64.6 µM)

CC(C)=CCc1cc(C(=O)Nc2c(O)c3ccc(O[C@@H]4OC(C)(C)[C@H](O)[C@@H](O)[C@H]4O)c(C)c3oc2=O)cc(O)c1O
MIC (Staphylococcus aureus [4]): > 64 µg/mL

C[C@@H]1CCC/C=C/C=C/[C@H](O)C[C@@H](O)[C@H](O)/C=C\C=C\[C@@H](O)C/C=C/C=C\C(=O)O1
MIC (Escherichia coli [7]): 0.3 µg/mL (≈ 0.717 µM)
MIC (Bacillus subtilis [5]): 100 µg/mL (≈ 239 µM)
MIC (Staphylococcus aureus [6]): 0.1 µg/mL (≈ 0.239 µM)
